Test results published in patent publication US9902696B2, “1,4-substituted piperidine derivatives” (Cephalon, Inc., priority 2015, dated 2018).
pIC50: −log10 of the molar value. Counter-ions that a name gives are not always drawn.

The compounds below were run against T1, recombinant human baculovirus-expressed GST-tagged FASN (Homo sapiens, UniProt P49327) (assay: FASN enzyme activity assay, fluorescence-based detection of CoA with CPM). Settings: 5 nM FASN, 150 μM NADPH, 10 μM acetyl-CoA, 25 μM malonyl-CoA, 90 minutes incubation; read-out: IC50 data for Additional Compounds of Formulae I-V(a): Activity.
T1 construct: GST
T1 sequence (P49327 whole entry): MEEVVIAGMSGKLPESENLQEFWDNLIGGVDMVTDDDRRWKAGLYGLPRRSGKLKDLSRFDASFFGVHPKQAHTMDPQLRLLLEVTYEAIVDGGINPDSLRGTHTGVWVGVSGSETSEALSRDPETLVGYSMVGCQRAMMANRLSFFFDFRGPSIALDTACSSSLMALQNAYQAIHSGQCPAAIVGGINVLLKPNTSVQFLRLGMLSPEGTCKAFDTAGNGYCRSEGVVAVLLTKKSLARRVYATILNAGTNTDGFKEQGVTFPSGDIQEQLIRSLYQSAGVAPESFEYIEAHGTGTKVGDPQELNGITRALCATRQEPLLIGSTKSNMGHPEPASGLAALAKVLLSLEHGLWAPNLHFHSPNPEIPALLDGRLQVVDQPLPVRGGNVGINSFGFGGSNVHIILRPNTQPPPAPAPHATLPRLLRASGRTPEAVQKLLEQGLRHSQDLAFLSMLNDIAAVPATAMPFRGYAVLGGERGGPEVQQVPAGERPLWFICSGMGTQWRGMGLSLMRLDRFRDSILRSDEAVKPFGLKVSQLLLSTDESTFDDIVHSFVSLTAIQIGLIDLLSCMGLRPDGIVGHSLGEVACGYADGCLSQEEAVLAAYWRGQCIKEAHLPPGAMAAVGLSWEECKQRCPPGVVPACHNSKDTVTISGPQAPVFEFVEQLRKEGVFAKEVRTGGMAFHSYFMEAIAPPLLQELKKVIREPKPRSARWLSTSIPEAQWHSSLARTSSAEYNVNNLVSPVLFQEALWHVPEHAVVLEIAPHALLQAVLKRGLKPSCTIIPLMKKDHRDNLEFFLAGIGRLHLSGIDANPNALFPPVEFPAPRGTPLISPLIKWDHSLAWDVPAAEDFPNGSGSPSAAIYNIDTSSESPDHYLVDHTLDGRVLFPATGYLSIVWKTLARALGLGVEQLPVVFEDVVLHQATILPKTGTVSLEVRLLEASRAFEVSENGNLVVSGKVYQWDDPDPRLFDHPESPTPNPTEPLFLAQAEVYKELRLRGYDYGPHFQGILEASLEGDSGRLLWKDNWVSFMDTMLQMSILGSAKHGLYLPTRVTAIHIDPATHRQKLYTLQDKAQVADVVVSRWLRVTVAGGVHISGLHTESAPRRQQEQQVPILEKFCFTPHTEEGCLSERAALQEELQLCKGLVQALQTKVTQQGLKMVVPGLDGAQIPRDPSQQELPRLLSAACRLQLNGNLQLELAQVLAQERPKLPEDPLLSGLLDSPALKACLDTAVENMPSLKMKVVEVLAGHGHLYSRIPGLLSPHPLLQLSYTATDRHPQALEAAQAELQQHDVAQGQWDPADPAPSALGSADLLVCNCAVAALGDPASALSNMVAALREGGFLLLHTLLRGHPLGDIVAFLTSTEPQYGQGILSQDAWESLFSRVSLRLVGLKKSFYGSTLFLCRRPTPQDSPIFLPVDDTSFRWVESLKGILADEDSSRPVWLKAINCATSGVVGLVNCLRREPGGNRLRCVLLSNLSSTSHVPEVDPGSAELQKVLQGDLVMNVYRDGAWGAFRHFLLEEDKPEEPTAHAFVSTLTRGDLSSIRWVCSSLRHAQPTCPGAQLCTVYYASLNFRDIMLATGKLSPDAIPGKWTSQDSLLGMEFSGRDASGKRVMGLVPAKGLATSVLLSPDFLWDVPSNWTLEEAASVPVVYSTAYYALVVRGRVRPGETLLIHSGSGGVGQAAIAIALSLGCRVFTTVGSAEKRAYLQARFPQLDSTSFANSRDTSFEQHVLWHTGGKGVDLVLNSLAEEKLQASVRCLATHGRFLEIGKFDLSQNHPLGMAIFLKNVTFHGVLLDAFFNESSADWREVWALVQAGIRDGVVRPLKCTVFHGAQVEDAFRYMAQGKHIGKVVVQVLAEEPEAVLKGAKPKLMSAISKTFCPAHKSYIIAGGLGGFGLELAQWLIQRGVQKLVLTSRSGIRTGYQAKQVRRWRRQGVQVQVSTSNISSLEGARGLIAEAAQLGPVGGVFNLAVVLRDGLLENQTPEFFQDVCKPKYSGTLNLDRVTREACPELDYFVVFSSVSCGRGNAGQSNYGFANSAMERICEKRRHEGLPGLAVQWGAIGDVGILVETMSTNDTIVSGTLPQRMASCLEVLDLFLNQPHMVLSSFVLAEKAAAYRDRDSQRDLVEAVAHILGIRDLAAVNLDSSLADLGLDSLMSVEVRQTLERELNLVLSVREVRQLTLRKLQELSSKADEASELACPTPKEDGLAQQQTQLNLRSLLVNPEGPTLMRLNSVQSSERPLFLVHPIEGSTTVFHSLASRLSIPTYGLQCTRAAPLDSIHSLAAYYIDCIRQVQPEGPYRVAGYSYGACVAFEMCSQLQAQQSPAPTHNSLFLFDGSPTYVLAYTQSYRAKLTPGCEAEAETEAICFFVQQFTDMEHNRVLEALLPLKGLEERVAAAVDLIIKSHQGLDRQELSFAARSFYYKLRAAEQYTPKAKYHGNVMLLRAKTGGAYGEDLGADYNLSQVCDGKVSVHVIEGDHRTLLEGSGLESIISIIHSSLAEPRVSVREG
Format: biochemical
Outline: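 CoA product reacted with thiol-reactive CPM (diluted to 50 μM in 70% ethanol), read at 390/530 nm after 30 min. Preceding reaction: 90 min, 5 nM recombinant GST-FASN, 150 μM NADPH, 10 μM acetyl-CoA, 25 μM malonyl-CoA, pH 7.5 HEPES, 0.5% DMSO. IC50s fitted by nonlinear sigmoidal regression.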
Work on CCONC(=O)N1CCC(Oc2ccc(-c3ccc4nccn4c3C)cc2)CC1 [Example 608, N-Ethoxy-4-[4-(5-methylimidazo[1,2-a]pyridin-6-yl)phenoxy]piperidine-1-carboxamide] yielded a pIC50 of 6.00 to 7.00.
Work on Cc1c(-c2ccc(OC3CCN(C(=O)CN(C)C)CC3)cc2)ccc2cccnc12 [Example 614, 2-(Dimethylamino)-1-[4-[4-(8-methyl-7-quinolyl)phenoxy]-1-piperidyl]-ethanone] yielded a pIC50 of 5.00 to 6.00.

Same assay, conditions: 5 nM FASN, 150 μM NADPH, 10 μM acetyl-CoA, 25 μM malonyl-CoA, 90 minutes incubation; read-out: IC50 data for Compounds of Formulae I-V/V(a): Activity
Work on Cc1c(-c2ccc(OC3CCN(C(N)=O)CC3)cc2)ccc2cccnc12 [Example 97, 4-[4-(8-methyl-7-quinolyl)phenoxy]piperidine-1-carboxamide] yielded a pIC50 of 6.00 to 7.00.
With O=C(C1CC(F)(F)CO1)N1CCC(Oc2ccc(-c3cnc4ccccc4c3)cc2)CC1 (stereo not drawn) [Example 163, (4,4-Difluorotetrahydrofuran-2-yl)-[4-(4-quinolin-3-yl-phenoxy)-piperidin-1-yl]-methanone, HCl] the pIC50 was 6.00 to 7.00.
In the case of Cc1c(-c2ccc(OC3CCN(C(=O)C(C)(F)F)CC3)cc2)ccc2cccnc12 [Example 358, 2,2-Difluoro-1-{4-[4-(8-methylquinolin-7-yl)-phenoxy]-piperidin-1-yl}-propan-1-one, HCl], the pIC50 was 6.00 to 7.00.
With CCC(=O)N1CCC(N(C)C(=O)c2ccc(-c3ccc4cnccc4c3)cc2F)CC1 [Example 158, 2-Fluoro-4-isoquinolin-6-yl-N-methyl-N-(1-propionyl-piperidin-4-yl)-benzamide] the pIC50 was 5.00 to 6.00.
With CCC(=O)N1CCC(Oc2ccc(-c3ccc4cccnc4c3)cc2)C1 (stereo in doubt) [Example 342, (S)-1-(3-(4-(Quinolin-7-yl)phenoxy)pyrrolidin-1-yl)propan-1-one, HCl] the pIC50 was 5.00 to 6.00.
Compound CCC(=O)N1CCC(Oc2ccc(-c3ccc4cccnc4c3OC)cc2F)CC1 [Example 219, 1-{4-[2-Fluoro-4-(8-methoxy-quinolin-7-yl)-phenoxy]-piperidin-1-yl}-propan-1-one] has a pIC50 of 7.00 to 9.00.
Work on CC(C)C(=O)N1CCC(Oc2ccc(-c3cnc4ccccc4c3)cc2F)CC1 [Example 7, 1-[4-(2-Fluoro-4-quinolin-3-yl-phenoxy)-piperidin-1-yl]-2-methyl-propan-1-one] yielded a pIC50 of 7.00 to 9.00.
CCC(=O)N1CCC(Oc2ccc(-c3ccc4ccc(C)nc4c3F)cc2)CC1 [Example 25, 1-{4-[4-(8-Fluoro-2-methylquinolin-7-yl)-phenoxy]-piperidin-1-yl}-propan-1-one] showed a pIC50 of 5.00 to 6.00.
Cc1c(-c2ccc(OC3CCN(C(=O)C4(C)CC4)CC3)cc2)ccc2cccnc12 [Example 320, (1-Methylcyclopropyl)-{4-[4-(8-methyl-quinolin-7-yl)-phenoxy]-piperidin-1-yl}-methanone] showed a pIC50 of 7.00 to 9.00.
With O=C(C1CC1)N1CCC(Oc2ccc(-c3ccc(OCc4ccccc4)cc3F)cc2)CC1 [Example 505, [4-(4′-Benzyloxy-2′-fluorobiphenyl-4-yloxy)-piperidin-1-yl]-cyclopropyl-methanone] the pIC50 was 5.00 to 6.00.
CCC(=O)N1CCC(Oc2ccc(-c3ccc(OC)c(OC)c3)cc2)CC1 [Example 491, 1-[4-(3′,4′-Dimethoxy-biphenyl-4-yloxy)-piperidin-1-yl]-propan-1-one] was tested, and the pIC50 was 6.00 to 7.00.
For Cc1c(-c2ccc(OC3CCN(C(=O)C4(O)CC4)CC3)cc2)ccc2nccn12 [Example 309, (1-Hydroxycyclopropyl)-{4-[4-(5-methyl-imidazo[1,2-a]pyridin-6-yl)-phenoxy]-piperidin-1-yl}-methanone], the pIC50 was 7.00 to 9.00.
CCC(=O)N1CCC(Oc2ccc(-c3ccc4cc(Cl)cnc4c3)cc2)CC1 [Example 266, 1-{4-[4-(3-Chloroquinolin-7-yl)-phenoxy]-piperidin-1-yl}-propan-1-one, TFA salt] showed a pIC50 of 6.00 to 7.00.
For CC(C)C(=O)N1CCC(Oc2ccc(-c3cnc4ccccc4c3)nc2)CC1 [Example 141, 2-Methyl-1-[4-(6-quinolin-3-yl-pyridin-3-yloxy)-piperidin-1-yl]-propan-1-one, 2HCl], the pIC50 was 5.00 to 6.00.
Work on CCC(=O)N1CCC(Oc2ccc(-c3ccc4cccnc4c3OCCCOC)cc2)CC1 [Example 179, 1-[4-[4-[8-(3-Methoxypropoxy)-7-quinolyl]phenoxy]-1-piperidyl]propan-1-one, HCl] yielded a pIC50 of 6.00 to 7.00.
Compound CCC(=O)N1CCC(Oc2ccc(-c3ccc4cccnc4c3NC)cc2)CC1 [Example 326, 1-{4-[4-(8-Methylaminoquinolin-7-yl)-phenoxy]-piperidin-1-yl}-propan-1-one] has a pIC50 of 6.00 to 7.00.
Compound COc1cccc2cc(-c3ccc(OC4CCN(C(=O)C5CC5)CC4)cc3)cnc12 [Example 58, Cyclopropyl-{4-[4-(8-methoxyquinolin-3-yl)-phenoxy]-piperidin-1-yl}-methanone] has a pIC50 of 6.00 to 7.00.
Nc1c(-c2ccc(OC3CCN(C(=O)[C@H]4CCCO4)CC3)cc2)ccc2cccnc12 [Example 324, [4-[4-(8-Amino-7-quinolyl)phenoxy]-1-piperidyl]-[(2R)-tetrahydrofuran-2-yl]methanone] gave a pIC50 of 7.00 to 9.00.
With Cc1cnc2cc(-c3ccc(OC4CCN(C(=O)[C@H]5CCCO5)CC4)cc3)ccc2c1 [Example 281, {4-[4-(3-Methylquinolin-7-yl)-phenoxy]-piperidin-1-yl}-(R)-tetrahydro-furan-2-yl-methanone] the pIC50 was 5.00 to 6.00.
With Cc1cc(-c2cnc3ccccc3c2)ccc1OC1CCN(C(=O)C2CC2)CC1 [Example 214, Cyclopropyl-[4-(2-methyl-4-quinolin-3-yl-phenoxy)-piperidin-1-yl]-methanone] the pIC50 was 5.00 to 6.00.
In the case of Cc1c(-c2ccc(OC3CCN(C(=O)C4CC4)CC3C)cc2)ccc2cccnc12 (stereo not drawn) [Example 376, Cyclopropyl-{3-methyl-4-[4-(8-methylquinolin-7-yl)-phenoxy]-piperidin-1-yl}-methanone, TFA salt], the pIC50 was 7.00 to 9.00.
With O=C1CCCN1C(=O)N1CCC(Oc2ccc(-c3cnc4ccccc4c3)cc2)CC1 [Example 243, 1-[4-(4-Quinolin-3-yl-phenoxy)-piperidine-1-carbonyl]-pyrrolidin-2-one] the pIC50 was 5.00 to 6.00.
For Cc1cc(-c2ccc(OC3CCN(C(=O)C4CC4)CC3)cc2)c2cccnc2c1 [Example 349, Cyclopropyl-{4-[4-(7-methyl-quinolin-5-yl)-phenoxy]-piperidin-1-yl}-methanone, HCl], the pIC50 was 7.00 to 9.00.
Work on O=C([C@H]1CCCO1)N1CCC(Oc2ccc(-c3ccc4nnc(C(F)(F)F)n4c3)cc2)CC1 [Example 161, (R)-Tetrahydrofuran-2-yl-{4-[4-(3-trifluoromethyl-1,2,4-triazolo[4,3-a]pyridin-6-yl)-phenoxy]-piperidin-1-yl}-methanone] yielded a pIC50 of 5.00 to 6.00.
In the case of O=C(C1CC1)N1CCC(Oc2ccc(-c3ccc(Oc4ccccc4)cc3)cc2)CC1 [Example 509, Cyclopropyl-[4-(4′-phenoxybiphenyl-4-yloxy)-piperidin-1-yl]-methanone], the pIC50 was 5.00 to 6.00.
O=C1COC(C(=O)N2CCC(Oc3ccc(-c4cnc5ccccc5c4)cc3)CC2)C1 (stereo not drawn) [Example 166, 5-[4-(4-Quinolin-3-yl-phenoxy)-piperidine-1-carbonyl]dihydrofuran-3-one] showed a pIC50 of 5.00 to 6.00.
Work on Cc1c(-c2ccc(OC3CCN(C(=O)C4(N)CC4)CC3)cc2)ccc2cccnc12 [Example 316, (1-Aminocyclopropyl)-{4-[4-(8-methyl-quinolin-7-yl)-phenoxy]-piperidin-1-yl}-methanone] yielded a pIC50 of 7.00 to 9.00.
Compound O=C(C1CC1)N1CCC(Oc2ccc(-c3ccc(Oc4ccccc4)nc3)cc2)CC1 [Example 390, Cyclopropyl-{4-[4-(6-phenoxy-pyridin-3-yl)-phenoxy]-piperidin-1-yl}-methanone] has a pIC50 of 5.00 to 6.00.
